Results taken from patent publication US20240099214A1, “PLANT DEFENCE GENE EXPRESSION” (UPL Corporation Limited, priority 2021, published 2024).

Columns and labels:
[1] = system: Tropinone reductase homolog at 1g07440-like (gene 10, Solyc06g083470.2); experiment: qRT-PCR expression of gene 10 in tomato leaves; format: in vivo, Tomato ecotype corbarino; parameters: key: relative expression normalized to a-tubulin housekeeping gene
Method: (§1) Tomato ecotype “corbarino” reported to be susceptible to TSWV infection was used in the experiment. Plants were grown in pots in a climatic chamber with a photoperiod of 16/8 hour at 25° C.
(§2) The viral strain (TSWV PV PV-0393) was utilized in the experiment. The virus was mechanically inoculated and propagated on tomato “corbarino”. The inoculum was prepared in an ice-cooled mortar grounding 1 gr of infected tomato tissue in 10 ml of Na-phosphate buffer 0.01M. The fresh prepared inoculum was stored in ice before use. Tomato plants at BBCH16 were dusted with Carborundum 600 mesh and selected leaves were rubbed with some droplets of inoculum. After 5 min. plants were sprayed with sterile water to remove the excess of inoculum and preserve the cell turgor.
(§3) Four treatments were compared: i) Mock inoculated; ii) TSWV; iii) 0.25% Laminarin; iv) 0.25% Laminarin+TSWV. In the last treatment the virus was inoculated 24 hrs after the laminarin application.
(§4) Total RNA was extracted from systemic infected tomato leaves by using the Quick-RNA Plant Kit (Zymo Research) following the manufacturer instructions. The extractions were carried out using three plants after 12 h, 24 h, 48 h, 72 h, 7 days after inoculation. Leaves were instantly frozen in liquid nitrogen after cutting to avoid any deterioration of the sample as well as any defense reaction. The RNA concentration was quantified by measuring the absorbance at 260 nm using a Nanodrop 2000 (Thermofisher). The purity of all of the RNA samples was assessed at an absorbance ratio of OD260/280 and OD260/230, while its structural integrity was checked by agarose gel electrophoresis. Only high-quality RNA with OD 260/280 and OD 260/230>2 was used for subsequent steps. Single-stranded cDNA was synthesized from 1 μg of total RNA using an iScript™ Select cDNA Synthesis Kit and random hexamers as primers (Bio-Rad, Milan, Italy), according to the manufacturer's instructions. Three biological replicates were created from the 3 leaves collected to test 15 genes. Alpha tubulin was used as reference gene.
(§5) qPCR reactions were performed with BioRad (Applied Biosystems, Foster City, CA, USA) using SYBR R Green. Each reaction was performed in 20 μl containing 10 μl of 2× Power SYBR Green PCR Master Mix (Life Technologies), 0.2-0.3 μM primers and cDNA samples diluted 1:20. Each qPCR reaction was performed in triplicate. Reactions were run using the cycling parameter described previously (Reid et al., 2006) and the qPCR data were analyzed by the Ct method (Pfaffl, 2001). In order to analyze the qPCR data, a-tubulin gene was used as housekeeping to determine the relative expression level of the other genes analyzed in this work. For the determination of qPCR efficiency of each primer pairs, a standard curve was performed using the following cDNA dilutions: 1:4, 1:16, 1:64; 1:256 and 1:1024. Every measurement was made in triplicate. The corresponding qPCR efficiencies (E) were calculated for every primer pair with the software 7300 System SDS software (Applied Biosystems, Foster City, CA, USA) according to the equation E=(10−1/slope−1)×100 (Rutledge and Stewart, 2008).
(§6) The significance of the differences between the gene expressions levels were compared by one-way ANOVA (p=0.01) and the means were separated by Tukey post-hoc test using SPSS ver.26 ([…]).

[2] = system: PR protein (gene 12, M69248.1); experiment: qRT-PCR expression of gene 12 in tomato leaves; format: in vivo, Tomato ecotype corbarino; parameters: key to RQ1 / RQ2 / RQ3 / RQ mean: relative expression normalized to a-tubulin housekeeping gene; conditions: for gene 12 (PR1 protein) expression: laminarin treatment group not specified
Method: as §1, §2, §3, §4, §5, §6

[3] = Gene_12, 24 hr, treatment Laminarin
[4] = Gene_12, 24 hr, treatment Laminarin + virus
[5] = Gene_12, 48 hr, treatment Laminarin
[6] = Gene_12, 48 hr, treatment Laminarin + virus
[7] = Gene_12, 72 hr, treatment Laminarin
[8] = Gene_12, 72 hr, treatment Laminarin + virus

laminarin
RQ1 ([1]; 12 hr, Laminarin + virus): 11.314 | RQ2 ([1]; 12 hr, Laminarin + virus): 15.111 | RQ3 ([1]; 12 hr, Laminarin + virus): 14.571 | RQ mean ([1]; 12 hr, Laminarin + virus): 13.665 | RQ1 ([1]; 12 hr, Laminarin alone): 10.134 | RQ2 ([1]; 12 hr, Laminarin alone): 11.716 | RQ3 ([1]; 12 hr, Laminarin alone): 14.046 | RQ mean ([1]; 12 hr, Laminarin alone): 11.966 | RQ1 ([1]; 24 hr, Laminarin + virus): 12.827 | RQ2 ([1]; 24 hr, Laminarin + virus): 10.653 | RQ3 ([1]; 24 hr, Laminarin + virus): 14.308 | RQ mean ([1]; 24 hr, Laminarin + virus): 12.596 | RQ1 ([1]; 24 hr, Laminarin alone): 13.673 | RQ2 ([1]; 24 hr, Laminarin alone): 15.462 | RQ3 ([1]; 24 hr, Laminarin alone): 14.026 | RQ mean ([1]; 24 hr, Laminarin alone): 14.387 | RQ1 ([1]; 48 hr, Laminarin + virus): 10.393 | RQ2 ([1]; 48 hr, Laminarin + virus): 11.439 | RQ3 ([1]; 48 hr, Laminarin + virus): 11.568 | RQ mean ([1]; 48 hr, Laminarin + virus): 11.133 | RQ1 ([1]; 48 hr, Laminarin alone): 14.550 | RQ2 ([1]; 48 hr, Laminarin alone): 13.402 | RQ3 ([1]; 48 hr, Laminarin alone): 19.692 | RQ mean ([1]; 48 hr, Laminarin alone): 15.882 | RQ1 ([1]; 72 hr, Laminarin + virus): 10.994 | RQ2 ([1]; 72 hr, Laminarin + virus): 19.941 | RQ3 ([1]; 72 hr, Laminarin + virus): 16.529 | RQ mean ([1]; 72 hr, Laminarin + virus): 15.821 | RQ1 ([1]; 72 hr, Laminarin alone): 28.092 | RQ2 ([1]; 72 hr, Laminarin alone): 16.708 | RQ3 ([1]; 72 hr, Laminarin alone): 22.307 | RQ mean ([1]; 72 hr, Laminarin alone): 22.369 | RQ1 ([2]; 12 hr, Laminarin + virus): 10.097 | RQ2 ([2]; 12 hr, Laminarin + virus): 0.9948 | RQ3 ([2]; 12 hr, Laminarin + virus): 11.722 | RQ mean ([2]; 12 hr, Laminarin + virus): 10.589 | RQ1 ([2]; 12 hr, Laminarin alone): 0.9616 | RQ2 ([2]; 12 hr, Laminarin alone): 11.039 | RQ3 ([2]; 12 hr, Laminarin alone): 10.693 | RQ mean ([2]; 12 hr, Laminarin alone): 10.449 | gene 12 (PR1 protein) expression ([2]; 48 hr post treatment, not statistically significant): highly overexpressed | gene 12 (PR1 protein) expression ([2]; 72 hr, statistically significant): overexpression of gene 12 is slightly reduced | activation of systemic acquired resistance (SAR), inferred from gene 12 overexpression ([2]; 72 hr, tomato): activate the SAR | RQ1 [2, 3]: 11.678 | RQ2 [2, 3]: 11.217 | RQ3 [2, 3]: 10.555 | RQ mean [2, 3]: 11.150 | RQ1 [2, 4]: 0.9321 | RQ2 [2, 4]: 11.344 | RQ3 [2, 4]: 11.191 | RQ mean [2, 4]: 10.619 | RQ1 [2, 5]: 46.753 | RQ3 [2, 5]: 31.171 | RQ mean [2, 5]: 60.670 | RQ1 [2, 6]: 42.751 | RQ2 [2, 6]: 56.022 | RQ3 [2, 6]: 37.918 | RQ mean [2, 6]: 45.564 | RQ1 [2, 7]: 44.543 | RQ2 [2, 7]: 23.924 | RQ3 [2, 7]: 31.675 | RQ mean [2, 7]: 33.381 | RQ1 [2, 8]: 36.333 | RQ2 [2, 8]: 29.356 | RQ3 [2, 8]: 21.584 | RQ mean [2, 8]: 29.091
